Measured values from patent publication US20220409580A1, “METHODS OF TREATING CONDITIONS RELATED TO THE S1P1 RECEPTOR” (Arena Pharmaceuticals, Inc., priority 2019, published 2022).

Legend:
Type in all cases: in vivo, human
[1] = test system: lymphocyte count; assay: Single-blind, placebo-controlled, randomized study of PK, PD, safety and tolerability: lymphocyte count
Description: (§1) A single-blind (ie, subject only), placebo-controlled, randomized, fixed-sequence, parallel design study evaluated PK, PD, safety, and tolerability in healthy Japanese and Caucasian male subjects (data reported herein is based on the preliminary clinical study report). A total of 49 subjects were enrolled and received 1 or 2 mg of Compound 1 or placebo once daily for 7 days followed by an additional single dose on Day 15, administered 1 week after a treatment-free period. […] The median percent change from baseline at Day 7 was −23.61% in the Japanese 1 mg group, −25.79% in the Caucasian 1 mg group, −50.00% in the Japanese 2 mg group, and −43.67% in the Caucasian 2 mg group. The median percent change from baseline at Day 15 (pre-dose) was 0.00% in the Japanese 1 mg group, −21.43% in the Caucasian 1 mg group, −6.67% in the Japanese 2 mg group, and −16.23% in the Caucasian 2 mg group. In depth immunophenotyping was performed in healthy subjects.

[2] = test system: circulating B cells, CD4+ TCM, CD4+ TN, Th17, Th2, CD8+ TCM, and CD8+TN cells; assay: In depth immunophenotyping in healthy subjects (FIG. 3); conditions: 1 or 2 mg once daily, peaked at Day 7 pre-dose
Description: as §1

[3] = Safety and tolerability in adult subjects, including Phase 1 studies with healthy adult subjects; conditions: approximately 281 adult subjects at various doses; single doses up to 5 mg, repeated doses up to 4 mg QD
Description: (§2) Compound 1, or a pharmaceutically acceptable salt, solvate, or hydrate thereof, is an orally administered, selective, synthetic sphingosine 1-phosphate (S1P) receptor 1, 4, 5 modulator. […] Its safety and tolerability have been evaluated in Phase 1 studies with healthy adult subjects at single doses up to 5 mg and repeated doses up to 4 mg once daily (QD).

[4] = test system: UC; assay: Phase 2 dose-ranging study in UC patients and open-label extension study; conditions: UC patients
Description: as §2

O=C(O)C[C@H]1CCc2c1[nH]c1ccc(OCc3ccc(C4CCCC4)c(C(F)(F)F)c3)cc21 [Compound 1, (R)-2-(7-(4-cyclopentyl-3-(trifluoromethyl)benzyloxy)-1,2,3,4-tetrahydrocyclopenta[b]indol-3-yl)acetic acid]
median percent change from baseline in lymphocyte count ([1]; Day 7, Caucasian 1 mg group, once daily for 7 days, healthy male subjects): −25.79%
median percent change from baseline in lymphocyte count ([1]; Day 7, Caucasian 2 mg group, once daily for 7 days, healthy male subjects): −43.67%
median percent change from baseline in lymphocyte count ([1]; Day 7, Japanese 1 mg group, once daily for 7 days, healthy male subjects): −23.61%
median percent change from baseline in lymphocyte count ([1]; Day 7, Japanese 2 mg group, once daily for 7 days, healthy male subjects): −50.00%
median percent change from baseline in lymphocyte count ([1]; Day 15 (pre-dose), after 1 week treatment-free period, Caucasian 1 mg group): −21.43%
median percent change from baseline in lymphocyte count ([1]; Day 15 (pre-dose), after 1 week treatment-free period, Caucasian 2 mg group): −16.23%
median percent change from baseline in lymphocyte count ([1]; Day 15 (pre-dose), after 1 week treatment-free period, Japanese 1 mg group): 0.00%
median percent change from baseline in lymphocyte count ([1]; Day 15 (pre-dose), after 1 week treatment-free period, Japanese 2 mg group): −6.67%
median lymphocyte count ([1]; all treatment groups, from first dose (Day 2) through end of repeated dosing period on Day 8): Progressive decreases
total lymphocyte count, including Th2 T cells ([1]; healthy subjects, 1 or 2 mg once daily): dose-dependent decrease
median number of circulating B cells, CD4+ TCM, CD4+ TN, Th17, Th2, CD8+ TCM, and CD8+TN cells [2]: dose-dependent decrease
safety and tolerability [3]: safe and well-tolerated
endoscopic and symptomatic improvements versus placebo ([4]; 2 mg QD for 12 weeks): clinically meaningful and statistically significant endoscopic and symptomatic improvements
beneficial effects in open-label extension study ([4]; up to 46 weeks): Sustained beneficial effects
